The values that follow come from paper PMC12812011 (Chemmedchem, 2025).

Entries after “also recorded” stand apart in the source; their conditions may differ.

By ΔTm is commonly meant the change in melting temperature against a reference sample.

Data set [1] concerns pseudotyped particles bearing the SARS-CoV-2 B.1 S protein. The data set is classed as cell-based. The note with it: TMPRSS2-independent (cathepsin L-dependent) entry.
Data set [2] has as its system particles pseudotyped with the glycoprotein of vesicular stomatitis virus (VSV-G). The data set is classed as cell-based.
Data set [3] concerns pseudotyped particles bearing the SARS-CoV-2 B.1 S protein. It counts as cell-based. The note with it: TMPRSS2-dependent entry.
For data set [4], the system named is particles pseudotyped with the glycoprotein of vesicular stomatitis virus (VSV-G). The data set is classed as cell-based. The source holds these as a separate data set.
Another data set has as its system SARS-CoV-2. Further details: method as in PMID 32142651, PMID 33676899, PMID 33393462, PMID 32312781, PMID 35382133. The note with it: cell culture; cited from earlier work.
The test system of the next data set is SARS-CoV-2 infection. The following applies: cited from earlier work; for benefit to COVID-19 patients: clinical trials, oral (camostat), intravenous (nafamostat).
The next data set concerns MCF-10A cells. As to the kind of experiment: AlamarBlue cell viability assay. The following applies: concentrations up to 100 µM. On the technique in general: Alamar Blue is a resazurin reagent that responds to reducing activity.
The next data set concerns salmon testes DNA. Nature of the data set: UV-thermal DNA denaturation with salmon testes DNA. The note with it: compound to DNA base ratio 0.1, phosphate buffer pH 7.
The test system of another data set is poly(dA•dT)2. Set-up: method as in PMID 18247550. The following applies: DNA oligo rich in AT pairs; cited from earlier work.

Experimental for salmon testes DNA: UV thermal denaturation experiments
Thermal melting experiments were conducted with a Varian Cary 300 Bio spectrophotometer equipped
with a 6×6 multicell temperature-controlled block. Temperatures were monitored with a thermistor
inserted into a 1 cm quartz cuvette containing the same volume of water as in the sample cells. Absorbance
changes at 260 nm were monitored from a range of 30 °C to 90 °C with a heating rate of 1 °C min -1 and a
data collection rate of five points per °C. The salmon sperm DNA was purchased from Sigma Aldrich
(extinction coefficient ε260= 6600 M-1 cm-1). A quartz cell with a 1 cm path length was filled with a 1 mL
solution of DNA or DNA-compound complex.
were prepared in a phosphate buffer ([10 mM K2HPO4/KH2PO4], adjusted to pH 7) so that a compound to
DNA base ratio of 0.1 was obtained. The thermal melting temperatures of the duplex or duplex-compound
complex obtained from the first derivative of the melting curves are reported.

With `CN(C)C(=O)COC(=O)Cc1ccc(OC(=O)c2ccc(NC(=N)N)cc2)cc1` [Camostat, camostat], the “SARS-CoV-2 S protein-driven entry into Vero76 cells” value in data set [1] was “not inhibited”. In addition, the “VSV-G-driven entry into Vero76 cells” value in data set [2] is “not inhibited”. In addition, in data set [3], the “SARS-CoV-2 S protein-mediated entry into Calu-3 cells” value was “inhibited”. In [4], the “VSV-G-driven entry into Calu-3 cells” value is on record as “reverse observation”. For the same molecule, the “inhibition of SARS-CoV-2 infection” value in the data set on SARS-CoV-2 is “inhibit SARS‐CoV‐2 infection with high efficiency”. Also, the “benefit to COVID-19 patients” value with SARS-CoV-2 infection was “little if any benefit”.

With `N=C(N)Nc1ccc(NC(=S)Nc2ccccc2)cc1` [Compound 2], the IC50 result in the data set on MCF-10A cells was “could not be found”. Also, the “cytotoxicity (cell death)” value with MCF-10A cells (72 hours) was “no cytotoxicity; also recorded: no significant cell‐death was detected”. Moreover, in the data set on salmon testes DNA, the ΔTm was 0.65 °C.

On to `N=C(N)Nc1ccc(NC(=S)Nc2ccccn2)cc1` [Compound 20], for which, in the data set on salmon testes DNA, the ΔTm is −0.25 °C.

As for `N=C(N)c1ccc2cc(OC(=O)c3ccc(N=C(N)N)cc3)ccc2c1` [Nafamostat, nafamostat], the “benefit to COVID-19 patients” value in the data set with SARS-CoV-2 infection was “little if any benefit”.

`CCN(CC)CCCC(C)Nc1ccnc2cc(Cl)ccc12` (centres unmarked) [chloroquine]: in data set [1], the “SARS-CoV-2 S protein-driven entry into Vero76 cells” value was “reduced by the highest concentration”. Besides, the “VSV-G-driven entry into Vero76 cells” value in [2] was “reduced by the highest concentration”. Moreover, the “VSV-G-driven entry into Calu-3 cells” value in data set [4] was “reverse observation”.

For `N=C(N)Nc1ccc(NC(=S)Nc2ccc(NC(=N)N)cc2)cc1` [hit‐compound], the ΔTm in the data set on poly(dA•dT)2 is 23.0 °C.

Regarding aprotinin, in the data set with SARS-CoV-2 infection (aerosolized), the “clinical benefit in COVID-19 patients” value was “of clinical benefit” and the “tolerability in COVID-19 patients” value is listed as “well tolerated”.
